Here are results for 1 compound from paper PMC5349910, “Discovery of BPR1K871, a quinazoline based, multi-kinase inhibitor for the treatment of AML and solid tumors: Rational design, synthesis, in vitro and in vivo evaluation” (Oncotarget, 2016).

The test system of one data set is MV4-11 cells. Nature of the data set: MTS cell viability assay, MV4-11. Format: cell-based, human. Conditions: MTS, 72 h, AML-FLT3-ITD (homozygous), supplement values ± SEM, read-out: MV4-11 EC50. How it is done: The MTS cell viability assay was conducted as previously described. The MOLM-13 human leukemia cell line was obtained from the German Resource Centre for Biological Material (DSMZ, Braunschweig, Germany); the MV4-11 cell line was purchased from the American Type Culture Collection (ATCC, Manassas, VA, USA). […] To determine cell viability after drug treatment, assay for MOLM-13 and MV4-11 was performed by seeding 10000 cells per well in a 96-well culture plate. […] After 16 h, cells were then treated with vehicle or various concentrations of compound in medium for 72 h. Viable cells were quantified using the MTS method (Promega, Madison, WI, USA) according to the manufacturer's recommended protocol. Results were determined by measuring the absorbance at 490 nm using a plate reader (Victor2; PerkinElmer, Shelton, CT, USA).
Background: Tetrazolium assays rely on reduction of a dye to a coloured formazan, in cell work by metabolically active cells.

Another data set has as its system RS4-11 cells. Nature of the data set: Anti-proliferative activity, RS4-11. Format: cell-based. The conditions noted are these: Homo sapiens, RS4-11; ALL-wt-FLT3 (homozygous); supplement values ± SEM; read-out: RS4-11 EC50.
Another data set concerns U937 cells. Nature of the data set: Anti-proliferative activity, U937. Format: cell-based. Conditions: Homo sapiens, U-937; AML-FLT3-negative; supplement values ± SEM; read-out: U937 EC50.
The test system of a further data set is CL 1-5 cells. Nature of the data set: Anti-proliferative activity, CL 1-5. It counts as cell-based. Conditions: CL1-5; Human Lung Adenocarcinoma.
The subject of data set [1] is AURKA phosphorylation (pAURKA at residue T288). Nature of the data set: Western blot, AURKA phosphorylation in MV4-11 cells. Format: cell-based, human. Conditions: nocodazole 16 h then drug 2.0 h. How it is done:
In order to understand the mode of action of BPR1K871, mechanistic studies in MV4-11 cell line using western blot analysis was carried out. MV4-11 cells were incubated with BPR1K871 in a dose-dependent manner for 2.0 h. Cell lysates were prepared and analyzed by immunoblotting for both FLT3 phosphorylation (pFLT3 at residue Y591) and AURKA phosphorylation (pAURKA at residue T288).
Western blot analysis was conducted as previously described. Primary antibodies against phospho-FLT3 (Tyr591) (#3461) and phospho-AURKA (Thr288) (#3079) were purchased from Cell Signaling Technology. The anti-FLT3 antibody (sc-480) and anti-AURKA antibody (07–648) were purchased from Santa Cruz Biotechnology and Upstate, respectively. The anti-β-actin rabbit polyclonal antibody (GTX110564) was purchased from GeneTex (CA, USA). The secondary antibodies horseradish peroxidase (HRP)-linked goat anti-rabbit IgG (111-035-003) were purchased from Jackson Immuno (West Grove, PA, USA). MV4-11 cells were incubated with compound BPR1K871 for 2.0 h at the indicated concentrations. Cell lysates were prepared and analyzed by immunoblotting. For AURKA analysis, the cell lysates were obtained from MV4-11 cells incubated for 16 h with 40 ngmL^-1 nocodazole, followed by drug treatment for 2.0 h at the indicated concentrations.
For orientation: In western blotting, separated proteins are transferred to a membrane and probed.

A further data set deals with MV4-11 tumor xenograft. Nature of the data set: MV4-11 subcutaneous xenograft model. Format: in vivo. Conditions: nude mice, iv 1, 3 or 10 mg/kg days 1–5 and 8–12; hydrochloride salt; p < 0.05. How it is done: Based on the potent in vitro anti-proliferative activity of BPR1K871, it was planned to investigate the in vivo efficacy. […] Subsequently, based on the PK study, we evaluated the acute toxicity of BPR1K871 in ICR mice (n = 3) by iv administration. […] Next, the antitumor activity of BPR1K871 was evaluated through IV route in MOLM-13 and MV4-11 xenograft models (Figure 5). For this, nude mice were inoculated subcutaneously with MOLM-13 and MV4-11 cells in the left flank. […] For MOLM-13 model, BPR1K871 was injected intravenously at 10 mg/kg daily for 5 days (on days 1–5); also BPR1K871 was intravenously administrated at 3 and 1 mg/kg once a day for two continuous weeks (on days 1–5 and 8–12). For MV4-11 model, BPR1K871 was intravenously administrated at 10, 3 and 1 mg/kg once a day for two continuous weeks (on days 1–5 and 8–12).

Data set [2] in a line: Microsomal stability assay, human. Format: in vitro ADME.
Another data set has as its target FLT3 (Homo sapiens, UniProt P36888). Nature of the data set: KINOMEScan, FLT3. The conditions noted are these: read-out: FLT3 % control.
The next data set relates to FLT3^ITD. Nature of the data set: KINOMEScan, FLT3 ITD. The conditions noted are these: 1000 nM.
A further data set deals with FLT3^K663Q (Homo sapiens, UniProt P36888, K663Q). Nature of the data set: KINOMEScan, FLT3 K663Q. Conditions: read-out: FLT3^K663Q % control.
The target in another data set is FLT3^N841I (Homo sapiens, UniProt P36888, N841I). Nature of the data set: KINOMEScan, FLT3 N841I. Conditions: read-out: FLT3^N841I % control.
The next data set deals with FLT3^R834Q (Homo sapiens, UniProt P36888, R834Q). Nature of the data set: KINOMEScan, FLT3 R834Q. Conditions: read-out: FLT3^R834Q % control.
The target of another data set is AURKB (Homo sapiens, UniProt Q96GD4). Nature of the data set: AURKB inhibition assay (Kinase-Glo). Format: biochemical. Further details: full length His-tagged Aurora-B (residues M1∼A344); His; purchased Invitrogen PV6130. Conditions: mean of at least two independent experiments. How it is done: AURKB assay was conducted as previously described. Briefly, the recombinant full length His-tagged Aurora-B (residues M1∼A344) was purchased from Invitrogen (Catalog number: PV6130). The kinase assay was carried out in 96-well plates with the tested compound in reaction solution (50 mM Tris-HCl pH 7.4, 10 mM NaCl, 10 mM MgCl2, 0.01% BSA, 5 mM ATP, 1 mM DTT and 15 mM tetra(LRRASLG) peptide, and 40 ng recombinant Aurora-B) at 30°C for 180 min.
AURKB, sequence (Q96GD4 whole entry): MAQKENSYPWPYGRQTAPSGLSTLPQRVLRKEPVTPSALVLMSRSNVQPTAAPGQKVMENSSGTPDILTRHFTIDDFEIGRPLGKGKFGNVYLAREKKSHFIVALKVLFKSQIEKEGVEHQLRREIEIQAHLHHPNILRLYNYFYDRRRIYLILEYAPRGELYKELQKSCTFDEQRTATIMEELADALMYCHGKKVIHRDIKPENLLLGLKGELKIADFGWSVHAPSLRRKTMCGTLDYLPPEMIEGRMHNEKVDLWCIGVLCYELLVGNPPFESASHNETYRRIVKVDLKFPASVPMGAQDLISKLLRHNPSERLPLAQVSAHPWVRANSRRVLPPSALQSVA
Following incubation, 50 μL Kinase-Glo Plus Reagent (Promega, Madison, WI, USA) was added, and the mixture was incubated at 25°C for 20 min. A 70 μL aliquot of each reaction mixture was transferred to a black microliter plate, and luminescence was measured on a Wallac Vector 1420 multilabel counter (PerkinElmer, Shelton, CT, USA).

“Also recorded” adds a separate entry of the source. Where two headings read alike, the source gives them in different places. Where only a bound is given, the exact number is not on record here.

Description for Mia-PaCa2 tumors: For this, COLO205 and Mia-PaCa2 xenograft models were established through inoculating nude mice subcutaneously with corresponding cancer cells. When the tumor size reached approximately 200 mm^3, the hydrochloride salt of BPR1K871 dissolved in the formulation was intravenously administered to suppress the growth of the subcutaneously xenografted tumors.
Nude mice (n = 8–9 per group) were inoculated subcutaneously with Mia-PaCa2 (1 × 10^6 per flank) or COLO205 cells (1 × 10^6 per flank). When the tumor size reached ∼200 mm^3, animals were grouped and treated with BPR1K871 at 20 mg/kg dose in a 2-week treatment period as indicated. […] Tumor volumes were measured and calculated with the formula length × width^2/2 after initiation of treatments. Tumor size and animal body weight were measured twice a week after tumor cell inoculation. The significant difference between drug treatment and vehicle control were analyzed using one-way ANOVA and Student-Newman-Keuls test. The level of statistical significance was set at P<0.05.

In general, EC50 refers to the concentration giving half of the maximal effect. One may read the IC50 as the concentration at which inhibition is half-maximal. Lower therefore signals higher potency. On to `CN(C)CCCOc1ccc2c(NCCc3cnc(NC(=O)Nc4cccc(Cl)c4)s3)ncnc2c1` [BPR1K871, 1-(3-Chlorophenyl)-3-(5-(2-((7-(3-(dimethylamino)propoxy)quinazolin-4-yl)amino)ethyl)thiazol-2-yl)urea], for which the EC50 in the data set with MV4-11 cells (Homo sapiens, MV4-11, 72 h) is approximately 5 nM; in the data set with MV4-11 cells (listed as 10 (BPR1K871)) it was 4 nM; in the data set on RS4-11 cells, 11 nM; with U937 cells, 8050 nM; in the data set with CL 1-5 cells it was 1390 nM. For the same compound, the “concentration that completely inhibited formation of pAURKA (Thr288)” value in [1] amounted to 100 nM. In the data set on MV4-11 tumor xenograft, the “growth / volume of MV4-11 tumor xenograft vs vehicle” value is “significantly reduced; also recorded: inhibited”. In data set [2], the “microsomal stability, remaining at 30 min” value is reported as more than 80%. The “TGI ± SD” value in the data set on Mia-PaCa2 tumors (Mia-PaCa2, 20 mg/kg iv once a day, days 1–5 and 8–12, day 29, n = 9) is given as 91 ± 10%. For the same compound, the body weight loss in the data set with Mia-PaCa2 tumors (Mia-PaCa2 model, 20 mg/kg iv) is listed as not above 15%. Moreover, in the data set with Mia-PaCa2 tumors (Mia-PaCa2 model, 20 mg/kg iv), the “mortality during the study” value is “no mice died”. Further, the remaining binding at 1 µM at FLT3 is 0.2%; on FLT3^K663Q it was less than 5.2%; at FLT3^N841I it was less than 5.2%; at FLT3^R834Q, less than 5.2%. Also, the “FLT3^ITD % control” value in the data set on FLT3^ITD is less than 5.2 % control. The half-inhibitory concentration (IC50) at AURKB is 13 nM.
